Test results published in ChEMBL document CHEMBL1144388, “Carbonic anhydrase inhibitors: synthesis and inhibition of cytosolic/tumor-associated carbonic anhydrase isozymes I, II, and IX with sulfonamides incorporating thioureido-sulfanilyl scaffolds” (Bioorg Med Chem Lett, 2005).

What was measured:
Carbonic anhydrase 9 = Carbonic anhydrase 9 (Homo sapiens, UniProt Q16790)
Description: Inhibitory constant against human Carbonic anhydrase IX

Carbonic anhydrase 1 = Carbonic anhydrase 1 (Homo sapiens, UniProt P00915)
Description: Inhibitory constant against human Carbonic anhydrase I

Carbonic anhydrase 2 = Carbonic anhydrase 2 (Homo sapiens, UniProt P00918)
Description: Inhibitory constant against human Carbonic anhydrase II

[1] = target: Carbonic anhydrases; II & IX (Homo sapiens, UniProt P00918+Q16790)
Description: Ratio against Carbonic anhydrase II to Carbonic anhydrase IX

Sequence of Carbonic anhydrase 1 (P00915 whole entry): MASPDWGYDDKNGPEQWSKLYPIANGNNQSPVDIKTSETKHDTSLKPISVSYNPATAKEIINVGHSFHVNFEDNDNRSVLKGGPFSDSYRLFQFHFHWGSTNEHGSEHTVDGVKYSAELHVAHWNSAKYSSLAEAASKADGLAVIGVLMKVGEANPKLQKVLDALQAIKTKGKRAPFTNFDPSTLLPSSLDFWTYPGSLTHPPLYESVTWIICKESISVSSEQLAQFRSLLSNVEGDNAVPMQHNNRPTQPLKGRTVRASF

Ki (Carbonic anhydrase 9) | Ki (Carbonic anhydrase 1) | Ki (Carbonic anhydrase 2) | Ki [1] | Compound
6.7 nM | 105 nM | 8.1 nM | 1.2 Ratio | CN(C)CC/N=C(\S)Nc1ccc(S(=O)(=O)Nc2ccc(S(N)(=O)=O)cc2)cc1
 | 268 nM | 278 nM |  | NS(=O)(=O)c1ccc(CNS(=O)(=O)c2ccc(NC(=S)NN3CCOCC3)cc2)cc1
 | 8.6 nM | 640 nM |  | NS(=O)(=O)c1ccc(CNS(=O)(=O)c2ccc(NC(=S)NCCc3ccccc3)cc2)cc1
5 nM | 246 nM | 10.3 nM | 2.06 Ratio | CN1CCN(CC/N=C(\S)Nc2ccc(S(=O)(=O)NCc3ccc(S(N)(=O)=O)cc3)cc2)CC1
4.8 nM | 3.1 nM | 220 nM | 45.83 Ratio | NS(=O)(=O)c1ccc(CNS(=O)(=O)c2ccc(N/C(S)=N/CCN3CCOCC3)cc2)cc1
 | 355 nM | 290 nM |  | NS(=O)(=O)c1ccc(CNS(=O)(=O)c2ccc(NC(=S)NCc3ccccn3)cc2)cc1
6.1 nM | 308 nM | 10.1 nM | 1.65 Ratio | CN(C)CC/N=C(\S)Nc1ccc(S(=O)(=O)NCCc2ccc(S(N)(=O)=O)cc2)cc1
5.6 nM | 9.5 nM | 180 nM | 32.14 Ratio | NS(=O)(=O)c1ccc(NS(=O)(=O)c2ccc(N/C(S)=N/CCN3CCOCC3)cc2)cc1
5.4 nM | 210 nM | 12 nM | 2.22 Ratio | CN(C)CC/N=C(\S)Nc1ccc(S(=O)(=O)NCc2ccc(S(N)(=O)=O)cc2)cc1
 | 233 nM | 290 nM |  | NS(=O)(=O)c1ccc(NS(=O)(=O)c2ccc(N/C(S)=N/N3CCOCC3)cc2)cc1
4.8 nM | 175 nM | 7.2 nM | 1.5 Ratio | CN1CCN(CC/N=C(\S)Nc2ccc(S(=O)(=O)Nc3ccc(S(N)(=O)=O)cc3)cc2)CC1
4.6 nM | 3.7 nM | 46 nM | 10 Ratio | NS(=O)(=O)c1ccc(CC/N=C(\S)Nc2ccc(S(=O)(=O)NCc3ccc(S(N)(=O)=O)cc3)cc2)cc1
